# ChEMBL document CHEMBL1177773, “Design, synthesis and anticancer activity of piperazine hydroxamates and their histone deacetylase (HDAC) inhibitory activity” (Bioorg Med Chem Lett, 2010)
# Columns and labels:
# [1] = tested on: HCT-116; experiment: Cytotoxicity against human HCT116 cells after 48 hrs by MTT assay; assay type: functional; conditions: for CC50: read-out: LC50 (the source's name)
# [2] = tested on: NCI-H460; experiment: Cytotoxicity against human NCI-H460 cells after 48 hrs by MTT assay; assay type: functional; conditions: for CC50: read-out: LC50 (the source's name)
# [3] = tested on: U-251; experiment: Cytotoxicity against human U251 cells after 48 hrs by MTT assay; assay type: functional; conditions: for CC50: read-out: LC50 (the source's name)
# [4] = biological target: T1, Histone deacetylase 8 (Homo sapiens, UniProt Q9BY41); experiment: Inhibition of human HDAC8
# T1 sequence (Q9BY41 whole entry): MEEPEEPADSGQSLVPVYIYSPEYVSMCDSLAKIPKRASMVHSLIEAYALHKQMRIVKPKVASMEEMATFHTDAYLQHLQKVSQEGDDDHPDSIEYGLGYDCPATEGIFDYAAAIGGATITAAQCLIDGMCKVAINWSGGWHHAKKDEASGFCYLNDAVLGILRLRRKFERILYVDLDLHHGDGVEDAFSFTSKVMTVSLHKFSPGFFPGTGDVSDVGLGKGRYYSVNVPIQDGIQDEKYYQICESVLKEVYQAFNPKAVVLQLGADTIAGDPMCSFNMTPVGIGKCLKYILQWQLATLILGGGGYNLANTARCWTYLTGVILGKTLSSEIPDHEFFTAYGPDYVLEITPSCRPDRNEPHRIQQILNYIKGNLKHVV
# [5] = tested on: HL-60; experiment: Growth inhibition of human HL60 cells after 48 hrs; assay type: functional, cell-based; conditions: HL-60, 48 h
compound,measurement,setting,value
O=C(NO)N1CCN(C(=S)N/N=C/c2ccc(Cl)cc2)CC1,GI50,"[1]; Homo sapiens, HCT-116, 48 h",11.6 µM
same,CC50,"[1]; Homo sapiens, HCT-116, 48 h",> 100 µM
same,GI50,"[2]; Homo sapiens, NCI-H460, 48 h",16 µM
same,CC50,"[2]; Homo sapiens, NCI-H460, 48 h",> 100 µM
same,GI50,"[3]; Homo sapiens, U-251, 48 h",8.5 µM
same,CC50,"[3]; Homo sapiens, U-251, 48 h",> 100 µM
same,IC50,[4],43.2 µM
O=C(NO)N1CCN(C(=S)N/N=C/c2c3ccccc3cc3ccccc23)CC1,GI50,"[1]; Homo sapiens, HCT-116, 48 h",70 µM
same,CC50,"[1]; Homo sapiens, HCT-116, 48 h",> 100 µM
same,GI50,"[2]; Homo sapiens, NCI-H460, 48 h",9.5 µM
same,CC50,"[2]; Homo sapiens, NCI-H460, 48 h",> 100 µM
same,GI50,"[3]; Homo sapiens, U-251, 48 h",65 µM
same,CC50,"[3]; Homo sapiens, U-251, 48 h",> 100 µM
O=C(CCCCCCC(=O)Nc1ccccc1)NO [VORINOSTAT],CC50,[1],> 100 µM
same,GI50,[2],8 µM
same,CC50,[2],> 100 µM
same,GI50,[3],6.5 µM
same,CC50,[3],> 100 µM
Cc1ccc(/C=N/NC(=S)N2CCN(C(=O)NO)CC2)cc1,GI50,"[1]; Homo sapiens, HCT-116, 48 h",31 µM
same,CC50,"[1]; Homo sapiens, HCT-116, 48 h",> 100 µM
same,GI50,"[2]; Homo sapiens, NCI-H460, 48 h",51 µM
same,CC50,"[2]; Homo sapiens, NCI-H460, 48 h",> 100 µM
same,GI50,"[3]; Homo sapiens, U-251, 48 h",27.5 µM
same,CC50,"[3]; Homo sapiens, U-251, 48 h",> 100 µM
O=C(NO)N1CCN(C(=S)N/N=C/c2ccccc2Cl)CC1,GI50,"[1]; Homo sapiens, HCT-116, 48 h",11.5 µM
same,CC50,"[1]; Homo sapiens, HCT-116, 48 h",> 100 µM
same,GI50,"[2]; Homo sapiens, NCI-H460, 48 h",30 µM
same,CC50,"[2]; Homo sapiens, NCI-H460, 48 h",> 100 µM
same,GI50,"[3]; Homo sapiens, U-251, 48 h",13.5 µM
same,CC50,"[3]; Homo sapiens, U-251, 48 h",> 100 µM
O=C(NO)N1CCN(C(=S)N/N=C/c2ccccc2O)CC1,GI50,"[1]; Homo sapiens, HCT-116, 48 h",8.6 µM
same,CC50,"[1]; Homo sapiens, HCT-116, 48 h",> 100 µM
same,GI50,"[2]; Homo sapiens, NCI-H460, 48 h",5.15 µM
same,CC50,"[2]; Homo sapiens, NCI-H460, 48 h",> 100 µM
same,IC50,[5],0.6 µM
same,GI50,"[3]; Homo sapiens, U-251, 48 h",14.2 µM
same,CC50,"[3]; Homo sapiens, U-251, 48 h",> 100 µM
same,IC50,[4],33.7 µM
O=C1Nc2ccccc2/C1=N/NC(=S)N1CCN(C(=O)NO)CC1,GI50,"[1]; Homo sapiens, HCT-116, 48 h",> 100 µM
same,CC50,"[1]; Homo sapiens, HCT-116, 48 h",> 100 µM
same,GI50,"[2]; Homo sapiens, NCI-H460, 48 h",> 100 µM
same,CC50,"[2]; Homo sapiens, NCI-H460, 48 h",> 100 µM
same,GI50,"[3]; Homo sapiens, U-251, 48 h",> 100 µM
same,CC50,"[3]; Homo sapiens, U-251, 48 h",> 100 µM
